Measured values: publication PMC7987348, “Structural basis for human TRPC5 channel inhibition by two distinct inhibitors” (eLife, 2021)

How the values were obtained:
TRPC5 = test system: TRPC5; parameters: method as in Richter et al., 2014; Zhou et al., 2017; Zhu et al., 2015; conditions: ref Richter et al., 2014; Zhou et al., 2017; Zhu et al., 2015; read-out: IC50 for inhibition of TRPC5; cited from earlier work
TRPC3/6 = test system: TRPC3/6; parameters: method as in Richter et al., 2014; conditions: ref Richter et al., 2014; cited from earlier work
TRPC7 = test system: TRPC7; parameters: method as in Richter et al., 2014; conditions: ref Richter et al., 2014; cited from earlier work
hTRPC5_1-764 = molecular target: T1, hTRPC5_1-764 (Homo sapiens, UniProt Q9UL62); assay: FLIPR calcium assay, C-terminally truncated construct hTRPC5_1-764; conditions: 14 mM extracellular calcium; AD293 cells
T1 sequence (Q9UL62 1-764): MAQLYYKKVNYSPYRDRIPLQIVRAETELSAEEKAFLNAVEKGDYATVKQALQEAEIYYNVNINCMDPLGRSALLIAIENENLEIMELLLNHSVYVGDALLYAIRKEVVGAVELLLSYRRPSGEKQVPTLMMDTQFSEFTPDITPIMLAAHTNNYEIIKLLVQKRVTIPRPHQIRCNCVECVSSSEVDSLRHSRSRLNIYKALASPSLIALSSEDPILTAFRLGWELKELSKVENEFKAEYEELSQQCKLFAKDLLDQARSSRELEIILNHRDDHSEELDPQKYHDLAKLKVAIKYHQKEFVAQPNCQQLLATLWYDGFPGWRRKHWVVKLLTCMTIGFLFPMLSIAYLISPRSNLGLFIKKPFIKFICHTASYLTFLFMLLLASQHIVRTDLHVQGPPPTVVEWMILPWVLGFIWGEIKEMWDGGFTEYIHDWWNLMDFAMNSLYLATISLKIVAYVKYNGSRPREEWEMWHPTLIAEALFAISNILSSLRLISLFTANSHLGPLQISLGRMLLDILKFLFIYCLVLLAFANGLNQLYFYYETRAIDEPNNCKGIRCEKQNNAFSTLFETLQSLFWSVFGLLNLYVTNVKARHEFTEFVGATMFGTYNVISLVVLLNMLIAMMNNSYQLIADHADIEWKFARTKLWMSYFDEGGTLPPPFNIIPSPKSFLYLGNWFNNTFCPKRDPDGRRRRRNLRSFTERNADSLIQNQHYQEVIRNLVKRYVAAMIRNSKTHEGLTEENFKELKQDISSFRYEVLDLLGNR

Clc1ccc(Cn2c(CN3CCCC3)nc3ccccc32)cc1 [CMZ, clemizole]
IC50 (TRPC5): 1000 to 1300 nM | fold more potent against TRPC5 than TRPC3/6 (TRPC3/6): 10 fold | fold more potent against TRPC5 than TRPC7 (TRPC7): 26 fold | inhibition of hTRPC5_1-764 (hTRPC5_1-764): can be inhibited
